Values joined by “and” are separate entries in the source; they are usually repeats but may differ in a detail not shown here. Equal entries are not always repeated.
What was measured:
FcεRIγ = FcεRIγ expression in DR1 TCR tg cells; assay type: cell-based, mouse; conditions: DR1 TCR tg cells cultured with peptide 48 hours; FIG. 6
Experimental: In FIG. 6 it is shown that A12 treatment increases […] expression. In the graph with axis 610 for the percentage of the maximum, axis 615 for the number of occurrences on a log scale, line 620 is for A2, line 625 is for media alone, and line 630 is for A12. Splenocytes from DR1 TCR transgenic mice were cultured for 48 hours in the presence of A12 (dark grey line), A2 (black line) or media alone (light grey line). […] The cells cultured with A2 peptide are no different than unstimulated controls.
Finally, we examined the expression of FcεRIγ, a molecule known to associate with the TCR complex. In some circumstances, the TCR is rewired so that the FcRgamma chain assumes the function of the zeta chain. Therefore, the DR1 TCR tg cells were cultured with either A12, or A2, or media alone and stained with an antibody specific for the gamma chain of the FcεRIγ molecule.

RA CD4+ T cells = assay: Intracellular IFNγ and IL-17 in CD4+ T cells of CII-stimulated RA PBMC (flow cytometry); assay type: cell-based, human; conditions: A12 10 μg/ml co-incubated with CII 50 μg/ml, 5 days; one RA patient; FIG. 2
Source text: We assessed the effect of APL A12 added to cultures of RA PBMC stimulated with α1(II) on CD4^+ T cells expression of IFNγ and IL-17 as shown in FIG. 2.
The flow use an IFNγ scale on y-axis 295 and IL-17 on x-axis 290, 291, 292, 293, 294 (log scale). The results of the flow are shown for Control 210 including IFNγ+IL-17 flow 270 and IFNγ Control flow 285. The results of the flow are shown for CII+A12 220 including IFNγ+IL-17 flow 265 and IFNγ Control flow 280. The results of the flow are shown for CII 230 including IFNγ+IL-17 flow 260 and IFNγ Control flow 275. Columns 240, 250 represent IFNγ+IL-17 flow and IFNγ Control flow, respectively. Peripheral blood lymphocytes were placed in culture (2×10^6/well, 24 well plate) and stimulated with either CII alone (50 μg/ml), CII+A12 peptide (10 μg/ml), or PBS for 5 days. […] Cells were then collected and analyzed by flow cytometry using fluorochrome-labeled antibodies specific for CD4, CD8, CD69, IL-17 and IFNγ. […] Data are based on a minimum of 75,000 events analyzed. The IFNγ Controls (right panels) are based on the fluorescence minus one (FMO) approach whereby the antibody of IFNγ is omitted from these samples to make sure that no fluorochrome was spilling over into the IFNγ detector.

DR4 mice = assay: Suppression of immunity to CII and arthritis in DR4 mice; assay type: in vivo, mouse; conditions: high-responder DR4 mice
Experimental: Assuming that CII263-270 was key to developing immunity to the intact CII molecule, a number of analog peptides where amino acids within this small segment were substituted with those found in the corresponding sites of nonarthritogenic type I collagen were prepared and tested. […] The APL A12 developed for this study has the following amino acid sequence: LGPKGQTGEBG[IAGNKGDQGPK]GEBGPA (SEQ ID NO: 3) where B=hydroxproline. The core determinant of human CII263-270 is bracketed. The underlined residues are those substituted to produce APL A12. The residues amino terminal and carboxy terminal to the core determinant is from the normal human CII sequence.

DR1 Transgenic mice = assay: Acute toxicity study of HC Peptide 1 in DR1 transgenic mice; assay type: in vivo, mouse; conditions: for Weight of Mice / Weight of Livers / Weight of Spleens: individual mice, HC Peptide 1 (100 μg) Fed; for Weight of Livers / Weight of Spleens: at sacrifice
Experimental: Eight DR1 transgenic mice (C57 BL/10 containing a human transgene for DR1) were studied in these acute toxicity studies. The four female litter mates were nine weeks old at the time the studies were initiated. Two female mice and two male mice were randomly assigned to the control group and two female and two male mice were randomly assigned to be treated with HC Peptide 1. Mice were gavaged once daily for seven days with 100 μl IV saline containing 100 μg HC Peptide1. Mice were weighed before treatment and every two days. Mice were examined daily for general healthy appearance, glossy coat, ruffling of hair, lethargy, ad lib behavior, shivering or vigor. At sacrifice on day 7, blood was collected for complete blood count and chemistries were performed by the Clinical Pathology Services, Charles River Laboratories, 251 Ballardvale Street, Wilmington, Mass. 01887. Food and water consumption were monitored in each cage. Liver and spleen were weighed at sacrifice of each mouse. Sections of liver, spleen, kidney, heart, lung, stomach, and small and large intestine, were placed in 10% formalin and processed for routine H and E sections by the Histology Laboratory at the Memphis VAMC. Mice were housed in an IACUC approved facility with 12 hours light and 12 hours darkness.
Changes in body weight over the six days mice were gavaged with 100× the human HC Peptide 1 dose were similar to mice gavaged with IV saline (See Table IX). Water and food consumption were similar between HC Peptide 1 treated and mice gavaged with IV saline (Table X). Upon sacrifice at day 7, the weight of livers and spleens were similar between mice gavaged with 100× the human dose of HC Peptide 1 and mice gavaged with IV saline (See Table XI). The complete blood counts (CBC) after 6 days gavage of DRB1*0401 transgenic mice with 100× the human HC Peptide 1 dose were similar to litter mates gavaged with IV saline. Plasma chemistries were similar in the […] transgenic mice gavaged with 100× the human dose of HC Peptide 1 compared to litter mates gavaged with IV saline.

[1] = Cage 1 Male (two mice), Days 1-2
[2] = Cage 1 Male (two mice), Days 3-4
[3] = Cage 1 Male (two mice), Days 5-6
[4] = Cage 1 Male (two mice), sum of Days 1-6 (unlabelled line)
[5] = Cage 3 Female (two mice), Days 1-2
[6] = Cage 3 Female (two mice), Days 3-4
[7] = Cage 3 Female (two mice), Days 5-6
[8] = Cage 3 Female (two mice), sum of Days 1-6 (unlabelled line)

LGPKGQTGEBGIAGAKGDQGPKGEBGPA [APL A12]
FcR gamma chain (FcεRIγ) expression (FcεRIγ): significant increase
decrease in the number of IFNγ-producing T cells (RA CD4+ T cells): 75%
reduction in IL-17 producing T cells (RA CD4+ T cells): 42%
immunity to CII and arthritis (DR4 mice): profoundly suppress
Plasma chemistries (DR1 Transgenic mice; 100× the human dose vs IV saline): similar
general appearance or behavior (DR1 Transgenic mice; 100× the proposed highest human dose by gavage, compared to littermates gavaged with IV saline): no differences
Chow Consumed (DR1 Transgenic mice; [1]): 13.3 GMS
Water Consumed (DR1 Transgenic mice; [1]): 15 MI
Chow Consumed (DR1 Transgenic mice; [2]): 10.5 GMS
Water Consumed (DR1 Transgenic mice; [2]): 10 MI
Chow Consumed (DR1 Transgenic mice; [3]): 14.4 GMS
Water Consumed (DR1 Transgenic mice; [3]): 15 MI
Chow Consumed (DR1 Transgenic mice; [4]): 38.2 GMS
Water Consumed (DR1 Transgenic mice; [4]): 40 MI
Chow Consumed (DR1 Transgenic mice; [5]): 15.7 GMS
Water Consumed (DR1 Transgenic mice; [5]): 12.5 MI
Chow Consumed (DR1 Transgenic mice; [6]): 14.2 GMS
Water Consumed (DR1 Transgenic mice; [6]): 9.5 MI
Chow Consumed (DR1 Transgenic mice; [7]): 15.3 GMS
Water Consumed (DR1 Transgenic mice; [7]): 13 MI
Chow Consumed (DR1 Transgenic mice; [8]): 45.2 GMS
Water Consumed (DR1 Transgenic mice; [8]): 35 MI
Weight of Mice (DR1 Transgenic mice; Day 2, female mice): 21.6 GMS and 19.4 GMS
Weight of Mice (DR1 Transgenic mice; Day 2, male mice): 22.4 GMS and 21.0 GMS
Weight of Mice (DR1 Transgenic mice; Day 4, female mice): 21.0 GMS and 18.6 GMS
Weight of Mice (DR1 Transgenic mice; Day 4, male mice): 21.6 GMS and 20.3 GMS
Weight of Mice (DR1 Transgenic mice; Day 6, female mice): 21.9 GMS and 19.3 GMS
Weight of Mice (DR1 Transgenic mice; Day 6, male mice): 22.7 GMS and 20.9 GMS
Weight of Mice (DR1 Transgenic mice; Time 0, female mice): 21.6 GMS and 18.7 GMS
Weight of Mice (DR1 Transgenic mice; Time 0, male mice): 22.4 GMS and 20.8 GMS
Weight of Livers (DR1 Transgenic mice; female mice): 0.99 GMS and 0.87 GMS
Weight of Spleens (DR1 Transgenic mice; female mice): 0.065 GMS and 0.07 GMS
Weight of Livers (DR1 Transgenic mice; male mice): 1.14 GMS and 0.9 GMS
Weight of Spleens (DR1 Transgenic mice; male mice): 0.09 GMS and 0.06 GMS
weight of livers and spleens (DR1 Transgenic mice; sacrifice at day 7, 100× the human dose vs IV saline): similar
Water and food consumption (DR1 Transgenic mice; vs mice gavaged with IV saline): similar

Source: patent publication US9144595B2, “APLs for treating arthritis” (University of Tennessee Research Foundation, priority 2009, dated 2015)
